We go through 59 compounds from patent US9902728B2, “Pyrrolo and pyrazolopyrimidines as ubiquitin-specific protease 7 inhibitors” (Forma Therapeutics, Inc., priority 2014, dated 2018).

SMILES strings stand for the structures.

T1 sequence (Q93009 208-1102): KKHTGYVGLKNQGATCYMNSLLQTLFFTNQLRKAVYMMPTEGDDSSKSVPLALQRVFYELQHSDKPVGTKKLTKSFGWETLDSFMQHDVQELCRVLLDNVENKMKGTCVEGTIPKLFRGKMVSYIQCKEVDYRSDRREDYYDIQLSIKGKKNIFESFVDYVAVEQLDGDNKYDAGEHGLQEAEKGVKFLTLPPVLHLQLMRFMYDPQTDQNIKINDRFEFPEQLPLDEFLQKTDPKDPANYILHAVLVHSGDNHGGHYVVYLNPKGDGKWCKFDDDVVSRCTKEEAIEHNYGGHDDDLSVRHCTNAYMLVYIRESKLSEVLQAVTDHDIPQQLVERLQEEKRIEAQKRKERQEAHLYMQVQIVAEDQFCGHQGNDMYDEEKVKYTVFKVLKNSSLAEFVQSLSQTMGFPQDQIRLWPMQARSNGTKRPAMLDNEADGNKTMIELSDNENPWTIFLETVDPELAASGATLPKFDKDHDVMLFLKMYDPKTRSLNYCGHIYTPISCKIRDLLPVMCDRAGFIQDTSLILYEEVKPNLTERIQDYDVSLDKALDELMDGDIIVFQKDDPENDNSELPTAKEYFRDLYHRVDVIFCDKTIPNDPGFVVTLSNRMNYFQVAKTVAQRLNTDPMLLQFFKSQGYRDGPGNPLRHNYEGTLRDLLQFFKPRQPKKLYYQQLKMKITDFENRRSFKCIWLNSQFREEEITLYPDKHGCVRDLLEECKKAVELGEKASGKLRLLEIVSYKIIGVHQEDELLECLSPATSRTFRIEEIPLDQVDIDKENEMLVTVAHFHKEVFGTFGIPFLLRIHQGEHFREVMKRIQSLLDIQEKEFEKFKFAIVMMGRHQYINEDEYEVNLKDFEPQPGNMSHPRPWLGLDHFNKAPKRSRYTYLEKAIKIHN

The first test addresses T1, USP7 (Homo sapiens, UniProt Q93009).
T1 construct: USP7, construct USP7 (208-1102) 6*His, Viva Biotech; 6xHis (C); purchased Viva Biotech
As to the kind of experiment: USP7 Assay A (Ubitquin-Rhodamine 110 Assay). The note with it: USP7 assay A and B (table does not say which assay per compound); Ubiquitin-Rhodamine 110 substrate; read-out: USP7_IC50. The format is biochemical. The method, then:
Each assay was performed in a final volume of 15 μL in assay buffer containing 20 mM Tris-HCl (pH 8.0, (1M Tris-HCl, pH 8.0 solution; Corning 46-031-CM)), 1 mM GSH (L-Glutathione reduced; Sigma #G4251), 0.03% BGG ([…], Sigma, #G7516-25G), and 0.01% Triton X-100 (Sigma, #T9284-10L). […] 5 μL of 2× enzyme was added to assay plates (pre-stamped with compound) preincubated with USP7 for 30 minutes and then 5 μL of 2×Ub-Rh110 was added to assay plates. […] Fluorescence was read on the Envision (Excitation at 485 nm and Emission at 535 nm; Perkin Elmer) or on the PheraSTAR (Excitation at 485 nm and Emission at 535 nm; BMG Labtech).
Data from USP7 Assays A and B were reported as percent inhibition (inh) compared with control wells based on the following equation: % inh=1−((FLU−AveLow)/(AveHigh−AveLow)) where FLU=measured Fluorescence (See Tables 6-10). AveLow=average Fluorescence of no enzyme control (n=16). AveHigh=average Fluorescence of DMSO control (n=16). […] Data is fitted using the Levenburg Marquardt algorithm.
On to `C[C@H](CC(=O)N1CCC(O)(Cn2cnc3c(cnn3C)c2=O)CC1)c1ccccc1` [Compound I-57], for which the IC50 was 0.2 to 1 µM.

Take `C[C@H](CC(=O)N1CCC(O)(Cn2cnc3c(cnn3C(C)(C)C)c2=O)CC1)c1ccccc1` [Compound I-59]: the IC50 is 0.2 to 1 µM.

For the compound `CC(C)(C)n1ncc2c(=O)n(CC3(O)CCN(C(=O)c4ccc(Oc5ccccc5)cc4)CC3)cnc21` [Compound I-60], the IC50 was > 10 µM.

`CC(C)n1ncc2c(=O)n(CC3(O)CCN(C(=O)C[C@@H](C)c4ccccc4)CC3)cnc21` [Compound I-61]: the IC50 was in the range of 0.2 to 1 µM.

Still in this test, the particulars now being: USP7 assay A and B (table does not say which assay per compound); read-out: USP7_IC50.
`CC(C)n1ncc2c(=O)n(CC3(O)CCN(C(=O)c4ccc(Oc5ccccc5)cc4)CC3)cnc21` [Compound I-62]: the IC50 is > 10 µM.

Turning to `C[C@H](CC(=O)N1CCC(O)(Cn2cnc3c(cnn3-c3ccc(F)cc3)c2=O)CC1)c1ccccc1` [Compound I-65], the IC50 was < 0.2 µM.

For the compound `O=C(c1ccc(Oc2ccccc2)cc1)N1CCC(O)(Cn2cnc3c(cnn3-c3ccc(F)cc3)c2=O)CC1` [Compound I-66], the IC50 is 0.2 to 1 µM.

Turning to `C[C@H](CC(=O)N1CCC(O)(Cn2cnc3c(cnn3-c3cccc(C(F)(F)F)c3)c2=O)CC1)c1ccccc1` [Compound I-67], the IC50 was < 0.2 µM.

Regarding `Cc1ccc(-n2ncc3c(=O)n(CC4(O)CCN(C(=O)C[C@@H](C)c5ccccc5)CC4)cnc32)cc1` [Compound I-68], the IC50 is < 0.2 µM.

Turning to `Cc1ccc(-n2ncc3c(=O)n(CC4(O)CCN(C(=O)c5ccc(Oc6ccccc6)cc5)CC4)cnc32)cc1` [Compound I-69], the IC50 was in the range of 0.2 to 1 µM.

Regarding `C[C@H](CC(=O)N1CCC(O)(Cn2cnc3c(cnn3-c3ccccn3)c2=O)CC1)c1ccccc1` [Compound I-70], the IC50 lay within 0.2 to 1 µM.

Turning to `C[C@H](CC(=O)N1CCC(O)(Cn2cnc3c(cnn3-c3ccccc3)c2=O)CC1)c1ccccc1` [Compound I-72], the IC50 was < 0.2 µM.

With `O=C(c1ccc(Oc2ccccc2)cc1)N1CCC(O)(Cn2cnc3c(cnn3-c3ccccc3)c2=O)CC1` [Compound I-73], the IC50 lay in the range of 0.2 to 1 µM.

For `CC(CC(=O)N1CCC(O)(Cn2cnc3c(cnn3C)c2=O)CC1)c1ccc(F)cc1` (centres unmarked) [Compound I-78], the IC50 was 0.2 to 1 µM.

In the case of `Cn1ncc2c(=O)n(CC3(O)CCN(C(=O)c4ccc(-c5ccccc5CC#N)cc4)CC3)cnc21` [Compound I-83], the IC50 fell in the range of 1 to 10 µM.

Regarding `CC(CC(=O)N1CCC(O)(Cn2cnc3c(cnn3C)c2=O)CC1)n1cccc1` (centres unmarked) [Compound I-105], the IC50 lay in the range of 0.2 to 1 µM.

`Cn1ncc2c(=O)n(CC3(O)CCN(C(=O)c4ccc(S(=O)(=O)Nc5ccccc5)cc4)CC3)cnc21` [Compound I-106]: the IC50 lay within 1 to 10 µM.

Turning to `CN(C(=O)c1ccc(C(=O)N2CCC(O)(Cn3cnc4c(cnn4C)c3=O)CC2)cc1)c1ccccc1` [Compound I-108], the IC50 fell in the range of 1 to 10 µM.

Turning to `Cn1ncc2c(=O)n(CC3(O)CCN(C(=O)c4ccc(NS(=O)(=O)c5ccccc5)cc4)CC3)cnc21` [Compound I-111], the IC50 lay within 1 to 10 µM.

As for `Cn1ncc2c(=O)n(CC3(O)CCN(C(=O)c4ccc5c(c4)CCN(c4ccccc4)C5)CC3)cnc21` [Compound I-115], the IC50 is 1 to 10 µM.

As for `CN(Cc1ccccc1)c1ccc(C(=O)N2CCC(O)(Cn3cnc4c(cnn4C)c3=O)CC2)cc1` [Compound I-119], the IC50 lay in the range of 0.2 to 1 µM.

On to `O=C(C[C@H](c1ccccc1)C(F)(F)F)N1CCC(O)(Cn2cnc3c(cnn3-c3ccccc3)c2=O)CC1` [Compound I-141], for which the IC50 was in the range of 1 to 10 µM.

In the case of `O=C(C[C@@H](c1ccccc1)C(F)(F)F)N1CCC(O)(Cn2cnc3c(cnn3-c3ccccc3)c2=O)CC1` [Compound I-142], the IC50 is < 0.2 µM.

On to `Cn1ncc2c(=O)n(CC3(O)CCN(C(=O)C[C@H](c4ccccc4)C(F)(F)F)CC3)cnc21` [Compound I-143], for which the IC50 was in the range of 1 to 10 µM.

Turning to `Cc1ccc(-n2ncc3c(=O)n(CC4(O)CCN(C(=O)C[C@H](c5ccccc5)C(F)(F)F)CC4)cnc32)cc1` [Compound I-144], the IC50 lay in the range of 1 to 10 µM.

In the case of `Cc1ccc(-n2ncc3c(=O)n(CC4(O)CCN(C(=O)C[C@@H](c5ccccc5)C(F)(F)F)CC4)cnc32)cc1` [Compound I-145], the IC50 was < 0.2 µM.

As to `Cn1ncc2c(=O)n(CC3(O)CCN(C(=O)CC(c4ccccc4)C(F)F)CC3)cnc21` (centres unmarked) [Compound I-147], the IC50 was in the range of 1 to 10 µM.

Consider `O=C(c1cccn1Cc1ccccc1)N1CCC(O)(Cn2cnc3c(cnn3-c3ccccc3)c2=O)CC1` [Compound I-150], for which the IC50 was < 0.2 µM.

For `O=C(c1ccc(Oc2ccccc2)cc1)N1CCC(O)(Cn2cnc3c(cnn3C3CC3)c2=O)CC1` [Compound I-152], the IC50 fell in the range of 1 to 10 µM.

As to `O=C(c1ccccc1)N1CCC(O)(Cn2cnc3c(cnn3-c3ccccc3)c2=O)CC1` [Compound I-153], the IC50 was 1 to 10 µM.

`CC(=O)N1CCC(O)(Cn2cnc3c(cnn3-c3ccccc3)c2=O)CC1` [Compound I-154]: the IC50 lay in the range of 1 to 10 µM.

Take `Cn1cnc(C(=O)N2CCC(O)(Cn3cnc4c(cnn4-c4ccccc4)c3=O)CC2)c1` [Compound I-155]: the IC50 lay in the range of 1 to 10 µM.

`O=C(c1ccc(C2CC2)cc1)N1CCC(O)(Cn2cnc3c(cnn3-c3ccccc3)c2=O)CC1` [Compound I-156]: the IC50 fell in the range of 0.2 to 1 µM.

For `COc1ccc(C(=O)N2CCC(O)(Cn3cnc4c(cnn4-c4ccccc4)c3=O)CC2)cc1` [Compound I-157], the IC50 lay within 0.2 to 1 µM.

As for `O=C(C1CC1)N1CCC(O)(Cn2cnc3c(cnn3-c3ccccc3)c2=O)CC1` [Compound I-158], the IC50 is 1 to 10 µM.

Turning to `O=C(c1ccc(=O)[nH]c1)N1CCC(O)(Cn2cnc3c(cnn3-c3ccccc3)c2=O)CC1` [Compound I-160], the IC50 lay in the range of 0.2 to 1 µM.

On to `CS(=O)(=O)Nc1ccc(C(=O)N2CCC(O)(Cn3cnc4c(cnn4-c4ccccc4)c3=O)CC2)cc1` [Compound I-164], for which the IC50 fell in the range of 0.2 to 1 µM.

As to `C=CS(=O)(=O)NCC(Cc1ccccc1)C(=O)N1CCC(O)(Cn2cnc3c(cnn3C)c2=O)CC1` (centres unmarked) [Compound I-170], the IC50 was > 10 µM.

For the compound `NC(=O)c1cccc(C(=O)N2CCC(O)(Cn3cnc4c(cnn4-c4ccccc4)c3=O)CC2)c1` [Compound I-172], the IC50 was 1 to 10 µM.

Consider `C=CS(=O)(=O)Nc1ccc(C(=O)N2CCC(O)(Cn3cnc4c(cnn4-c4ccccc4)c3=O)CC2)cc1` [Compound I-173], for which the IC50 was 0.2 to 1 µM.

Consider `C[C@H](CC(=O)N1CCC(O)(Cn2cnc3c(cnn3-c3ccccc3)c2=O)CC1)n1cccn1` [Compound I-175], for which the IC50 is < 0.2 µM.

For the compound `C[C@@H](CC(=O)N1CCC(O)(Cn2cnc3c(cnn3-c3ccccc3)c2=O)CC1)n1cccn1` [Compound I-176], the IC50 lay in the range of 1 to 10 µM.

Regarding `C[C@H](CC(=O)N1CCC(O)(Cn2cnc3c(cnn3-c3ccccc3)c2=O)CC1)n1cccc1` [Compound I-177], the IC50 is < 0.2 µM.

On to `C[C@@H](CC(=O)N1CCC(O)(Cn2cnc3c(cnn3-c3ccccc3)c2=O)CC1)n1cccc1` [Compound I-178], for which the IC50 fell in the range of 1 to 10 µM.

Take `NC(=O)c1ccc(C(=O)N2CCC(O)(Cn3cnc4c(cnn4-c4ccccc4)c3=O)CC2)cc1` [Compound I-179]: the IC50 was 0.2 to 1 µM.

`CC(=O)Nc1cccc(C(=O)N2CCC(O)(Cn3cnc4c(cnn4-c4ccccc4)c3=O)CC2)c1` [Compound I-181]: the IC50 lay in the range of 1 to 10 µM.

Regarding `CNS(=O)(=O)c1ccc(C(=O)N2CCC(O)(Cn3cnc4c(cnn4-c4ccccc4)c3=O)CC2)cc1` [Compound I-182], the IC50 was 1 to 10 µM.

Consider `CNC(=O)c1ccc(C(=O)N2CCC(O)(Cn3cnc4c(cnn4-c4ccccc4)c3=O)CC2)cc1` [Compound I-184], for which the IC50 lay within 0.2 to 1 µM.

With `O=C(C1CCCCC1)N1CCC(O)(Cn2cnc3c(cnn3-c3ccccc3)c2=O)CC1` [Compound I-189], the IC50 lay within 0.2 to 1 µM.

For the compound `O=C(c1ccc(F)cc1)N1CCC(O)(Cn2cnc3c(cnn3-c3ccccc3)c2=O)CC1` [Compound I-190], the IC50 is 0.2 to 1 µM.

Turning to `O=C(c1ccncc1)N1CCC(O)(Cn2cnc3c(cnn3-c3ccccc3)c2=O)CC1` [Compound I-191], the IC50 fell in the range of 1 to 10 µM.

Consider `O=C(C1CCC1)N1CCC(O)(Cn2cnc3c(cnn3-c3ccccc3)c2=O)CC1` [Compound I-194], for which the IC50 was in the range of 1 to 10 µM.

Take `O=C(C1CCCC1)N1CCC(O)(Cn2cnc3c(cnn3-c3ccccc3)c2=O)CC1` [Compound I-195]: the IC50 is 0.2 to 1 µM.

On to `Cc1cc(C)cc(C(=O)N2CCC(O)(Cn3cnc4c(cnn4-c4ccccc4)c3=O)CC2)c1` [Compound I-197], for which the IC50 lay in the range of 1 to 10 µM.

`Cc1ccc(C(=O)N2CCC(O)(Cn3cnc4c(cnn4-c4ccccc4)c3=O)CC2)cc1C` [Compound I-200]: the IC50 lay in the range of 1 to 10 µM.

For the compound `COc1cc(OC)cc(C(=O)N2CCC(O)(Cn3cnc4c(cnn4-c4ccccc4)c3=O)CC2)c1` [Compound I-203], the IC50 is > 10 µM.

In the case of `Cc1cccc(C(=O)N2CCC(O)(Cn3cnc4c(cnn4-c4ccccc4)c3=O)CC2)c1F` [Compound I-206], the IC50 was in the range of 1 to 10 µM.

Take `O=C(c1ccc(F)cc1F)N1CCC(O)(Cn2cnc3c(cnn3-c3ccccc3)c2=O)CC1` [Compound I-209]: the IC50 was in the range of 1 to 10 µM.

Take `O=C(c1ccc(F)c(Cl)c1)N1CCC(O)(Cn2cnc3c(cnn3-c3ccccc3)c2=O)CC1` [Compound I-210]: the IC50 was 1 to 10 µM.
